Experimental data reported in the SangsterLogP compilation.

Structure (SMILES) | logP
O=C1c2c(O)cccc2C(SCCc2ccccc2)c2cccc(O)c21 | 4.97
CC(SC1c2cccc(O)c2C(=O)c2c(O)cccc21)C(=O)O (stereo not given) | 2.77
CCOC(=O)CSC1c2cccc(O)c2C(=O)c2c(O)cccc21 | 4.45
O=C1c2c(O)cccc2C(SCCCS)c2cccc(O)c21 | 4.33
O=C1c2c(O)cccc2C(Sc2ccc(O)cc2)c2cccc(O)c21 | 3.69
O=C1c2c(O)cccc2C(SCc2ccccc2)c2cccc(O)c21 | 4.87
O=C(O)CSC1c2cccc(O)c2C(=O)c2c(O)cccc21 | 2.35
CCOC(=O)CCSC1c2cccc(O)c2C(=O)c2c(O)cccc21 | 4.59
COc1ccccc1SC1c2cccc(O)c2C(=O)c2c(O)cccc21 | 4.42
CCCCOC(=O)CCSC1c2cccc(O)c2C(=O)c2c(O)cccc21 | 4.55
O=C(O)CCSC1c2cccc(O)c2C(=O)c2c(O)cccc21 | 3
O=C1c2c(O)cccc2C(Sc2ccccc2O)c2cccc(O)c21 | 3.92
Nc1ccc(SC2c3cccc(O)c3C(=O)c3c(O)cccc32)cc1 | 3.65
CCCCOC(=O)CSC1c2cccc(O)c2C(=O)c2c(O)cccc21 | 4.41
O=C1c2c(O)cccc2C(SCCCc2ccccc2)c2cccc(O)c21 | 4.78
COc1ccc(CSC2c3cccc(O)c3C(=O)c3c(O)cccc32)cc1 | 4.83
CCSC1c2cccc(O)c2C(=O)c2c(O)cccc21 | 2.97
O=C1c2c(O)cccc2C(SCC(O)CO)c2cccc(O)c21 (stereo not given) | 2.73
COC(=O)CSC1c2cccc(O)c2C(=O)c2c(O)cccc21 | 3.53
Nc1ccccc1SC1c2cccc(O)c2C(=O)c2c(O)cccc21 | 4.05
COc1cccc(SC2c3cccc(O)c3C(=O)c3c(O)cccc32)c1 | 4.5
COc1ccc(SC2c3cccc(O)c3C(=O)c3c(O)cccc32)cc1 | 4.51
CCCSC1c2cccc(O)c2C(=O)c2c(O)cccc21 | 4.57
O=C1c2c(O)cccc2C(SCCO)c2cccc(O)c21 | 3.16
O=C1c2c(O)cccc2C(Sc2ccccc2)c2cccc(O)c21 | 4.54
